Experimental data from patent publication US20090018111A1, “Novel Antimicrobial Medicament” (priority 2004, published 2009).
Read-outs that look alike come from different tables or passages of the source.

How the values were obtained:
Assay in all cases: Sensitivity test (agar dilution)
[1] = test system: M. luteus ATCC9341; format: cell-based, Micrococcus luteus; conditions: Micrococcus luteus
Outline: (§1)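 Under the Japan Chemotherapeutic Society protocol, MIC was recorded as the lowest agar concentration, in twofold dilutions in MHA, preventing growth of about 10^6 CFU/ml inocula. FIC indices were derived for drug pairs.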

[2] = test system: P. vurgalis OX-19; format: cell-based, Proteus vulgaris; conditions: Proteus vulgaris
Outline: as §1

[3] = test system: P. vulgaris GN7919; format: cell-based, Proteus vulgaris; conditions: Proteus vulgaris
Outline: as §1

[4] = test system: Str. pyogenes Cook; format: cell-based, Streptococcus pyogenes; conditions: Streptococcus pyogenes
Outline: as §1

## C[C@H]1C=C(c2csc(SC3=C(C(=O)O)N4C(=O)[C@H]([C@@H](C)O)[C@H]4[C@H]3C)n2)CN1 [SM, (4R,5S,6S)-6-[(1R)-1-Hydroxyethyl]-4-methyl-3-({4-[(5S)-5-methyl-2,5-dihydro-1H-pyrrol-3-yl]-1,3-thiazol-2-yl}sulfanyl)-7-oxo-1-azabicyclo[3.2.0]hept-2-ene-2-carboxylic acid]
[1]; ATCC9341, Concomitant (MEPM:SM = 1:4), read-out: MIC
  MIC: ≤ 0.063 µg/mL
[1]; ATCC9341, Concomitant (PAPM:SM = 1:1), M. luteus ATCC9341, read-out: MIC concomitant
  MIC: ≤ 0.002 µg/mL
[1]; ATCC9341, Concomitant (PIPC:SM = 1:1), M. luteus ATCC9341, read-out: MIC concomitant
  MIC: ≤ 0.002 µg/mL
[1]; ATCC9341, Concomitant drug (MEPM:SM = 2:1), read-out: MIC
  MIC: ≤ 0.008 µg/mL
[1]; ATCC9341, alone, read-out: MIC
  MIC: ≤ 0.008 µg/mL
[1]; ATCC9341, drug alone, M. luteus ATCC9341, read-out: MIC alone
  MIC: 0.004 µg/mL
[2]; OX19, Concomitant (IPM:SM = 1:1)
  MIC: 0.063 µg/mL
[2]; OX19, Concomitant (MEPM:SM = 1:1)
  MIC: ≤ 0.016 µg/mL
[2]; OX19, Concomitant (MEPM:SM = 1:2)
  MIC: ≤ 0.031 µg/mL
[2]; OX19, Concomitant (MEPM:SM = 1:4)
  MIC: ≤ 0.063 µg/mL
[2]; OX19, Concomitant drug (MEPM:SM = 2:1)
  MIC: 0.016 µg/mL
[2]; OX19, alone
  MIC: 0.063 µg/mL
[2]; OX19, read-out: MIC concomitant, Concomitant (AZT:SM = 1:1), P. vurgalis OX-19
  MIC: 0.004 µg/mL
[2]; OX19, read-out: MIC concomitant, Concomitant (BIPM:SM = 1:1), P. vurgalis OX-19
  MIC: 0.031 µg/mL
[2]; OX19, read-out: MIC concomitant, Concomitant (CAZ:SM = 1:1), P. vurgalis OX-19
  MIC: 0.008 µg/mL
[2]; OX19, read-out: MIC concomitant, Concomitant (CPFX:SM = 1:1), P. vurgalis OX-19
  MIC: 0.008 µg/mL
[2]; OX19, read-out: MIC concomitant, Concomitant (DRPM:SM = 1:1), P. vurgalis OX-19
  MIC: 0.031 µg/mL
[2]; OX19, read-out: MIC concomitant, Concomitant (PAPM:SM = 1:1), P. vurgalis OX-19
  MIC: 0.063 µg/mL
[2]; OX19, read-out: MIC concomitant, Concomitant (PIPC:SM = 1:1), P. vurgalis OX-19
  MIC: ≤ 0.002 µg/mL
[3]; GN7919, Concomitant (AZT:SM = 1:1), P. vulgaris GN7919, read-out: MIC concomitant
  MIC: 0.25 µg/mL
[3]; GN7919, Concomitant (BIPM:SM = 1:1), P. vulgaris GN7919, read-out: MIC concomitant
  MIC: 0.25 µg/mL
[3]; GN7919, Concomitant (CAZ:SM = 1:1), P. vulgaris GN7919, read-out: MIC concomitant
  MIC: 0.5 µg/mL
[3]; GN7919, Concomitant (CPFX:SM = 1:1), P. vulgaris GN7919, read-out: MIC concomitant
  MIC: 0.016 µg/mL
[3]; GN7919, Concomitant (DRPM:SM = 1:1), P. vulgaris GN7919, read-out: MIC concomitant
  MIC: 0.063 µg/mL
[3]; GN7919, Concomitant (IPM:SM = 1:1), read-out: MIC
  MIC: 0.5 µg/mL
[3]; GN7919, Concomitant (MEPM:SM = 1:1), read-out: MIC
  MIC: 0.031 µg/mL
[3]; GN7919, Concomitant (MEPM:SM = 1:2), read-out: MIC
  MIC: 0.063 µg/mL
[3]; GN7919, Concomitant (MEPM:SM = 1:4), read-out: MIC
  MIC: 0.125 µg/mL
[3]; GN7919, Concomitant (PAPM:SM = 1:1), P. vulgaris GN7919, read-out: MIC concomitant
  MIC: 0.5 µg/mL
[3]; GN7919, Concomitant (PIPC:SM = 1:1), P. vulgaris GN7919, read-out: MIC concomitant
  MIC: 0.5 µg/mL
[3]; GN7919, Concomitant drug (MEPM:SM = 2:1), read-out: MIC
  MIC: 0.016 µg/mL
[3]; GN7919, alone, read-out: MIC
  MIC: 1 µg/mL
[3]; GN7919, drug alone, P. vulgaris GN7919, read-out: MIC alone
  MIC: 1 µg/mL
[4]; Concomitant (AZT:SM = 1:1), Str. pyogenes Cook, read-out: MIC concomitant
  MIC: 0.004 µg/mL
[4]; Concomitant (BIPM:SM = 1:1), Str. pyogenes Cook, read-out: MIC concomitant
  MIC: 0.004 µg/mL
[4]; Concomitant (CAZ:SM = 1:1), Str. pyogenes Cook, read-out: MIC concomitant
  MIC: 0.004 µg/mL
[4]; Concomitant (CPFX:SM = 1:1), Str. pyogenes Cook, read-out: MIC concomitant
  MIC: 0.004 µg/mL
[4]; Concomitant (DRPM:SM = 1:1), Str. pyogenes Cook, read-out: MIC concomitant
  MIC: ≤ 0.002 µg/mL
[4]; Concomitant (IPM:SM = 1:1), read-out: MIC
  MIC: ≤ 0.002 µg/mL
[4]; Concomitant (MEPM:SM = 1:1), read-out: MIC
  MIC: ≤ 0.016 µg/mL
[4]; Concomitant (MEPM:SM = 1:2), read-out: MIC
  MIC: ≤ 0.031 µg/mL
[4]; Concomitant (MEPM:SM = 1:4), read-out: MIC
  MIC: ≤ 0.063 µg/mL
[4]; Concomitant (PAPM:SM = 1:1), Str. pyogenes Cook, read-out: MIC concomitant
  MIC: ≤ 0.002 µg/mL
[4]; Concomitant (PIPC:SM = 1:1), Str. pyogenes Cook, read-out: MIC concomitant
  MIC: ≤ 0.002 µg/mL
[4]; Concomitant drug (MEPM:SM = 2:1), read-out: MIC
  MIC: ≤ 0.008 µg/mL
[4]; alone, read-out: MIC
  MIC: ≤ 0.008 µg/mL
[4]; drug alone, Str. pyogenes Cook, read-out: MIC alone
  MIC: 0.004 µg/mL
